Experimental data from US7264956B2, “Compounds and methods for inhibiting axillary malodour” (Givaudan SA, priority 2001, dated 2007).

Each compound was assayed against T1, enzyme extracted from Corynebacterium striatum A×20 (AMRE, Nα-acyl-glutamine-aminoacylase) (Corynebacterium striatum, UniProt Q8GGD4) (assay: Substrate specificity of the enzyme (capillary GC of released acid or alcohol)). Settings: not given.
T1 construct: an enzyme may be isolated from cellular extracts obtained from wild-type bacterial strains; endogenous in cells; host or cells: Corynebacterium striatum Ax20 (DSM 14267), mechanically disrupted; crude extract or chromatographically purified enzyme
Type: biochemical
Experimental: To understand in detail the structural requirements of substrates, the enzyme extracted from Corynebacterium striatum A×20 was incubated with a wide variety of said compounds related to the originally isolated Nα-3-methyl-3-hydroxy-hexanoyl-L-glutamine present in sweat. Each compound was used at a concentration of 500 ppm in Buffer A, and analysis of released acid or alcohol was done by capillary GC after 24 h of incubation. First, different modifications at the N-terminus were tested.

T1 sequence (Q8GGD4 2-400): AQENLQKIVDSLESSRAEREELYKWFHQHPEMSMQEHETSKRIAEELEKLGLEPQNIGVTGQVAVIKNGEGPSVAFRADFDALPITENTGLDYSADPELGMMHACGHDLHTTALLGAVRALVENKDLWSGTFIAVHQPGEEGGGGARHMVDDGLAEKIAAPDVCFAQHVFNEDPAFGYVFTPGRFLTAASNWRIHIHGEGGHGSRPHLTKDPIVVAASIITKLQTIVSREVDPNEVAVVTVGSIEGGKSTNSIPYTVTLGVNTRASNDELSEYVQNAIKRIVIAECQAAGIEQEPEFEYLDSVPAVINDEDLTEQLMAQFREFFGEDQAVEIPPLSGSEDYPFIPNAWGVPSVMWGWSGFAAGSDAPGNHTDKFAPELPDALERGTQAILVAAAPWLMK

Structure (SMILES)	cleavage of substrate by enzyme (in words)
CCCC(C)=CC(=O)N[C@@H](CCC(N)=O)C(=O)O [Nα(3-methyl-2-hexenoyl)-L-glutamine]	able to be cleaved
NC(=O)CC[C@H](NC(=O)OCCc1ccccc1)C(=O)O [Nα-2-Phenylethyloxycarbonyl-L-glutamine]	able to be cleaved
CC(C)=CCCC(C)CCOC(=O)N[C@@H](CCC(N)=O)C(=O)O (stereo partly drawn) [Nα-3,7-Dimethyl-6-octenyloxycarbonyl-L-glutamine]	able to be cleaved
NC(=O)CC[C@H](NC(=O)OCCC12CC3CC(CC(C3)C1)C2)C(=O)O [Nα-(2-Adamantan-1-yl-ethoxycarbonyl)-L-glutamine]	able to be cleaved
NC(=O)CC[C@H](NC(=O)OCC12CC3CC(CC(C3)C1)C2)C(=O)O [Nα-(2-Adamantan-1-yl-methoxycarbonyl)-L-glutamine]	able to be cleaved
CC(CCOC(=O)N[C@@H](CCC(N)=O)C(=O)O)CCc1ccccc1 (stereo partly drawn) [Nα-(3-Methyl-5-phenylpentanoxycarbonyl)-L-glutamine]	able to be cleaved
CCC=CCCOC(=O)N[C@@H](CCC(N)=O)C(=O)O [Nα-(3-hexenyl)oxycarbonyl-L-glutamine]	able to be cleaved
CCCC(C)(O)CC(=O)N[C@@H](CCC(N)=O)C(=O)O (stereo partly drawn) [Nα-(3-hydroxy-3-methyl-hexanoyl)-L-glutamine]	able to be cleaved
COc1ccc(SC(=O)N[C@@H](CCC(N)=O)C(=O)O)cc1 [Nα-(4-methoxy-phenylsulfanylcarbonyl)-L-glutamine]	able to be cleaved
CC(C)(C)C1CCC(OC(=O)N[C@@H](CCC(N)=O)C(=O)O)CC1 (stereo partly drawn) [Nα-(4-tert-Butylcyclohexyloxycarbonyl)-L-glutamine]	able to be cleaved
C=CCCCCCCCCC(=O)N[C@@H](CCC(N)=O)C(=O)O [Nα-(11-undecenoyl)-L-glutamine]	able to be cleaved
CCCCOC(=O)N[C@@H](CCC(N)=O)C(=O)O [Nα-Butyloxycarbonyl-L-glutamine]	able to be cleaved
CC1=CCC(CCOC(=O)N[C@@H](CCC(N)=O)C(=O)O)C1(C)C (stereo partly drawn) [Nα-[2-(2,2,3-trimethyl-cyclopent-3-enyl)-ethoxycarbonyl)-L-glutamine]	able to be cleaved
CCCCCCCCCC(=O)N[C@@H](CCC(N)=O)C(=O)O [Nα-decanoyl-L-glutamine]	able to be cleaved
CCCCCCCCCCCCCC(=O)N[C@@H](CCC(N)=O)C(=O)O [Nα-tetradecanoyl-L-glutamine]	able to be cleaved
CC(C)=CCCC(C)CCOC(=O)N[C@@H](CCC(N)=O)C(=O)O (stereo partly drawn) [compound 5, Nα-3,7-Dimethyl-6-octenyloxycarbonyl-L-glutamine]	can cleave

Same assay, conditions: 500 ppm in Buffer A, 24 h incubation

Structure (SMILES)	Cleavage by enzyme
CCCCCCCCCC(=O)N[C@@H](CCC(N)=O)C(=O)O [compound 3, Nα-decanoyl-L-glutamine]	+++ (+++ cleavage over 50%)
NC(=O)CC[C@H](NC(=O)OCc1ccccc1)C(=O)O [compound 4, Carbobenzyloxy-L-glutamine]	++ (++ cleavage 10–50%)
CC(C)=CCCC(C)CCOC(=O)N[C@@H](CCC(N)=O)C(=O)O (stereo partly drawn) [compound 5, Nα-3,7-Dimethyl-6-octenyloxycarbonyl-L-glutamine]	+++ (+++ cleavage over 50%)
CCCCCCCCCCCC(=O)N[C@@H](CC(=O)O)C(=O)O [compound 6, N-Lauroyl-L-aspartate]	−
CCCCCCCCCCCC(=O)N[C@@H](CCCCN)C(=O)O [compound 7, Nα-Lauroyl-L-lysine]	−

Same assay, conditions: listed as Nα-Carbobenzyloxy-L-glutamine

Structure (SMILES)	cleavage of substrate by enzyme (in words)
NC(=O)CC[C@H](NC(=O)OCc1ccccc1)C(=O)O [compound 4, Carbobenzyloxy-L-glutamine]	able to be cleaved

Same assay, conditions: listed as Nα-carbobenzyloxy-L-glutamine

Structure (SMILES)	cleavage of substrate by enzyme (in words)
NC(=O)CC[C@H](NC(=O)OCc1ccccc1)C(=O)O [compound 4, Carbobenzyloxy-L-glutamine]	can cleave
